Results reported in patent US10391066B2, “Compositions and methods for the treatment of Parkinson's disease” (Texas Tech University System, priority 2012, dated 2019).

Legend:
[1] = target: T1, PP2A (Homo sapiens, UniProt P67775); assay: PP2A activity in response to ceramides and FTY720 compounds (FIG. 8); assay type: biochemical; details: for PP2A activity in response to compounds: FIG. 8B, C2 ceramide as internal control; for PP2A activity in response to Ceramides: FIG. 8A
[2] = tested on: PP2A in mouse adrenal gland; assay: PP2A activity in mouse adrenal gland after single dosing (FIG. 9B, 9D, 9F); assay type: in vivo; details: for effect on PP2A in mouse adrenal gland, IV delivery: single dose (FIG. 9D, 9F)
[3] = target: rPP2A (Homo sapiens, UniProt P67775); assay: recombinant PP2A (rPP2A) activity with FTY720 compounds; assay type: biochemical; details: versus rPP2A alone; for effect on rPP2A activity: across tested concentrations
[4] = tested on: BDNF expression in neurons; assay: BDNF trophic factor expression in neurons (FIG. 6); assay type: cell-based
[5] = tested on: PP2A; assay: PP2A activity, cellular assay (FIG. 4B); assay type: cell-based
[6] = tested on: C57/B16 Mice mouse model of Parkinson's disease; assay: Paraquat mouse model of Parkinson's disease, brain immunohistochemistry (FIG. 5); assay type: in vivo
[7] = tested on: control and mutant A53T Syn PD mice; assay: Anxiety levels in control and mutant A53T Syn PD mice (FIG. 7B); assay type: in vivo, mouse
[8] = target: T1, PP2A; assay: PP2A activity, cell free assay (FIG. 4A); assay type: biochemical
[9] = tested on: S1P receptors; details: with the exception of S1P2; cited from earlier work
[10] = tested on: control and mutant A53T Syn PD mice; assay: Grip strength in control and mutant A53T Syn PD mice (FIG. 7A); assay type: in vivo, mouse; details: 5 month old mice, FTY720 twice a week for 14 weeks versus vehicle

T1 sequence (P67775 whole entry): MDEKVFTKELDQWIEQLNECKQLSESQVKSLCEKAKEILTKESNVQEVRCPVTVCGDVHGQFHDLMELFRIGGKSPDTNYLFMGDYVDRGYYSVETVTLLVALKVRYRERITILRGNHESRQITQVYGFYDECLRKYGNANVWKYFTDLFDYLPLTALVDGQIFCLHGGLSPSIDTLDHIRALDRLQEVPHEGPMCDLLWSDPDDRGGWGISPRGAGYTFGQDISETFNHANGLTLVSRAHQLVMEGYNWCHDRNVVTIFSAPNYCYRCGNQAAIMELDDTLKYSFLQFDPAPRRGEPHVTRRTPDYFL
Chain of rPP2A (P67775 whole entry): as above

PP2A activity in response to Ceramides [1] | Compound | PP2A activity in response to compounds [1] | effect on PP2A in mouse adrenal gland, IV delivery [2] | effect on rPP2A activity [3] | agonism of S1P receptors [9] | effect on rPP2A activity at 10 uM [3] | other results
 | CCCCCCCCc1ccc(CCC(CO)(CO)NC(C)=O)cc1 [FTY720-C2, N-(1-hydroxy-2-(hydroxymethyl)-4-(4-octylphenyl)butan-2-yl)ethanamide] | significantly stimulate PP2A activity | stimulatory effects | biggest effect |  |  | effect on PP2A in mouse adrenal gland, oral delivery ([2]; gavage, single dose (FIG. 9B)): stimulatory effects
able to stimulate PP2A activity | CCCCCCCCCCCCCC=CC(O)C(CO)NC(=O)CCCCC (stereo not shown) [Ceramide C6] |  |  |  |  |  | 
able to stimulate PP2A activity | CCCCCCCCCCCCC/C=C/[C@@H](O)[C@H](CO)NC(C)=O [C2 ceramide] | significantly stimulate PP2A activity |  |  |  |  | 
 | CCCCCCCCc1ccc(CCC(N)(CO)CO)cc1 [FTY720, 2-amino-2-[2-(4-octylphenyl)ethyl]-1,3-propanediol] | significantly stimulate PP2A activity |  | increases rPP2A activity more at lower concentrations than at higher concentrations | potent agonists of S1P receptors with the exception of S1P2 | not significantly greater than rPP2A alone | BDNF expression at the message level ([4]; neurons (FIG. 6B)): increased BDNF expression at the message level; BDNF at the protein level ([4]; neurons treated with FTY720, blot (FIG. 6A)): increased BDNF at the protein level; PP2A activity, cellular [5]: stimulates PP2A activity; Paraquat toxicity ([6]; C57/B16 mice, FTY720 given before paraquat (PQ)): blocks Paraquat Toxicity; paraquat-stimulated increase in Syn in dopamine neurons ([6]; PQ given after FTY720, immunohistochemistry, TH-labelled neurons): blocks the increase in Syn; neuroinflammation as measured by microglial Ibal staining ([6]; adjacent tissue section): reduces neuroinflammation; anxiety levels [7]: reduces anxiety levels; PP2A activity, cell free [8]: stimulates PP2A activity; mouse grip strength [10]: improves mouse grip strength
 | CCCCCCCCc1ccc(CCC(CO)(CO)NC(=O)CC[P+](c2ccccc2)(c2ccccc2)c2ccccc2)cc1 [FTY720-Mitoxy, (3-(1-hydroxy-2-(hydroxymethyl)-4-(4-octylphenyl)butan-2-ylamino)-3-oxopropyl) triphenyl phosphonium bromide] | significantly stimulate PP2A activity | stimulatory effects | moderate effect |  | significant inhibitory effect | 
 | CCCCCCCCc1ccc(CCC(N)(CO)COP(=O)(O)O)cc1 (stereo not shown) [FTY720-P, 2-amino-2-[2-(4-octylphenyl)ethyl]propane-1,3-diol phosphate] |  |  |  | potent agonists of S1P receptors with the exception of S1P2 |  | 
